The record followed here is patent US8513242B2, “Pyrimidine compounds and methods of making and using same” (Cystic Fibrosis Foundation Therapeutics, Inc., priority 2008, dated 2013).

Where only a bound is given, the exact number is not on record here.

In assay [1] the target is T1, ΔF508 CFTR (Homo sapiens, UniProt P13569, DEL508-508).
T1 construct: expressed in transfected cells; host or cells: FRT epithelial cells (Fischer rat thyroid)
Description: Dual corrector potentiator assay, corrector mode: FRT cell Ussing chamber short circuit current after 24 hours exposure to compound. Format: cell-based. Conditions: for EC50: FRT cell monolayers, 24 hours exposure, EC50 defined as concentration giving >25% increase in whole cell Cl− conductance vs DMSO at 37° C.; for Corrector Efficacy: ΔIcompound(forskolin+IBMX+genistein)/ΔIvehicle(forskolin+IBMX+genistein). As to the method: (§1) FRT epithelial cell monolayers were grown on Snapwell filter inserts and optionally treated with a reference corrector N-(2-(5-chloro-2-methoxyphenylamino)-4′-methyl-4,5′-bithiazol-2′-yl)benzamide. The cells were exposed to a compound of the invention for 24 hours prior to the assay. The inserts were transferred to a Navicyte Ussing recording chamber and superfused with a HEPES buffered physiological saline (HB-PS) with composition (in mM): NaCl, 137; KCl, 4.0; CaCl2, 1.8; MgCl2, 1; HEPES, 10; Glucose, 10; pH adjusted to 7.4 with NaOH. The mucosal solution was 10CF-PS (composition in mM: Na-gluconate, 137; KCl, 4; CaCl2, 1.8; MgCl2, 1; HEPES, 10; Mannitol, 10; pH adjusted to 7.4 with N-methyl-D-glucamine) to create a transepithelial Cl ion gradient. A Physiologic Instruments VCC MC6 epithelial voltage clamp (Physiologic Instruments, Inc., San Diego, Calif.) was used to record the short circuit current (ISC).
(§2) Inserts were voltage clamped at 0 mV to measure the ISC. 10CF-PS solution (5 ml) was added to the mucosal (top) side of the Snapwell filter and HB-PS solution (5 mL) was added to the serosal (bottom) side of the Snapwell filter insert to permeabilize the serosal membrane. Solution additions and replacements in the Navicyte chambers were performed in a way to maintain a hydrostatic pressure gradient from mucosal to serosal sides of the filters by maintaining a solution level greater or equal in the mucosal chamber relative to the serosal chamber during solution changes. After acquisition of at least 10 minutes of baseline current, agonists (final concentrations: 10 μM forskolin, 100 μM 3-isobutyl-1-methylxanthine [IBMX] and 20 μM genistein) and antagonist (final concentration: 10 μM CFTRinh-172) were applied sequentially and cumulatively at 10 minute intervals for forskolin and IBMX, and at 15 minute intervals for genistein and CFTRinh-172, to both serosal and mucosal epithelial surfaces.
(§3) Agonists were prepared as 200×-1000× concentrated solutions in HP-PS and 10CF-PS. Agonist stocks prepared in HB-PS were added to the serosal surface, while agonist stocks prepared in 10CF-PS were added to the mucosal surface. In potentiator assays, appropriate volumes from 10 mM test compound solution in DMSO were added to the mucosal 10CF-PS solution. Agonists were diluted to the final working concentration in the Navicyte chamber by removal of chamber solution and addition of the concentrated stock solution. Order of solution removal was serosal then mucosal and for solution additions mucosal then serosal in order to maintain a hydrostatic pressure gradient from mucosal to serosal during solution changes. Transepithelial resistance was monitored every 20 s with 10 mV voltage steps.
(§4) EC50 values are defined as the concentration of compound that gives a >25% increase in whole cell Cl^− conductance (compared to DMSO at 37° C. as a vehicle) at 10 μM. The corrector efficacy was measured as a percentage change in agonist+compound vs. agonist: ΔIcompound(forskolin+IBMX+genistein)/ΔIvehicle(forskolin+IBMX+genistein). The potentiator efficacy was measured as a percentage change in forskolin activity: ΔI(forskolin+compound)/ΔI(forskolin+IBMX+genistein).

The target in assay [2] is T1, ΔF508 CFTR. Description: Dual corrector potentiator assay, potentiator mode: FRT cell Ussing chamber short circuit current, compound added to mucosal solution. Format: cell-based. Conditions: for Potentiator Efficacy: ΔI(forskolin+compound)/ΔI(forskolin+IBMX+genistein). As to the method: as §1, §2, §3, §4
Where [3] appears, read: pretreatment of cells not given.
The mark [4] stands for this setting: ** cells treated with reference corrector N-(2-(5-chloro-2-methoxyphenylamino)-4′-methyl-4,5′-bithiazol-2′-yl)benzamide.

T1 sequence (P13569 with tags, fused parts or gaps DEL508-508): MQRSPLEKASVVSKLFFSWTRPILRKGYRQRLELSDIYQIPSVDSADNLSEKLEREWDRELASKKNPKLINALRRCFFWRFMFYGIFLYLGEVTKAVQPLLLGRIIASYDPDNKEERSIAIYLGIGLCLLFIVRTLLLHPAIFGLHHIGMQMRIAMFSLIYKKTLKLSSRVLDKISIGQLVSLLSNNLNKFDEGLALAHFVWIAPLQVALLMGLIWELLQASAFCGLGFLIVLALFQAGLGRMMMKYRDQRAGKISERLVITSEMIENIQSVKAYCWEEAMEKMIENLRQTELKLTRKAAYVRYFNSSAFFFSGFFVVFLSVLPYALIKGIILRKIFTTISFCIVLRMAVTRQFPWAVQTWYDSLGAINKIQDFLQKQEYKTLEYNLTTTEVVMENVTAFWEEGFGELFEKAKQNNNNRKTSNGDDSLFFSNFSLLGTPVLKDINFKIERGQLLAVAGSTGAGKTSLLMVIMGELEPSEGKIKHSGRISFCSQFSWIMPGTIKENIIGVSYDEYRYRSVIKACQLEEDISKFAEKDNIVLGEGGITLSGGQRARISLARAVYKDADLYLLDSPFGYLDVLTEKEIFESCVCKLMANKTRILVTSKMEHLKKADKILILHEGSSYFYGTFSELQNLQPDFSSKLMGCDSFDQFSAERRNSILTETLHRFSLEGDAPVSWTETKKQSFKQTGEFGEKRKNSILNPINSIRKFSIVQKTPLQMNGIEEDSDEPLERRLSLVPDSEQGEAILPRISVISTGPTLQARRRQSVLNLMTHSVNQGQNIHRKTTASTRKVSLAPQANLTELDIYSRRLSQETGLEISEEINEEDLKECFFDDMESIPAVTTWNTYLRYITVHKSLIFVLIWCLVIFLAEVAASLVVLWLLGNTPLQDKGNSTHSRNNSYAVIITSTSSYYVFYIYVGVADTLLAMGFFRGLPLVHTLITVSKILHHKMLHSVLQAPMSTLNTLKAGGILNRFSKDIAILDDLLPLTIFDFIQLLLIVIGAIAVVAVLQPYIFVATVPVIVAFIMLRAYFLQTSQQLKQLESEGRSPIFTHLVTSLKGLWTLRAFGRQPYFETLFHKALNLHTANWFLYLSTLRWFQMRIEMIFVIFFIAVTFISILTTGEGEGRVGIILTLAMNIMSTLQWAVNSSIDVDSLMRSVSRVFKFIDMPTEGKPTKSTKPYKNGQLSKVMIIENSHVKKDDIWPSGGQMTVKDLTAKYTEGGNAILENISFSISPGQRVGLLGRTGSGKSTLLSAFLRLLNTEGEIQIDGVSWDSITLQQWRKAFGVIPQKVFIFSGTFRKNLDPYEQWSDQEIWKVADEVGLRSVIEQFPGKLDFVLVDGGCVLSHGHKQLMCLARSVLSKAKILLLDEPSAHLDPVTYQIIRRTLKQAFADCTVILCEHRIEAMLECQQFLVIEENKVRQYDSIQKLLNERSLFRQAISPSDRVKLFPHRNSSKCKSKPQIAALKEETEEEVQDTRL

One may read the EC50 as the concentration that produces a half-maximal response. For `C[C@H]1CC[C@@H](Nc2ncc(-c3ccc(OCC#N)cc3)c(OCC3CC3)n2)CC1` [Example 133, 2-(4-(4-(cyclopropylmethoxy)-2-((1s,4s)-4-methylcyclohexylamino)pyrimidin-5-yl)phenoxy)acetonitrile], on ΔF508 CFTR [1], the EC50 was > 20 µM and the “Corrector Efficacy” value is recorded as “+++ (+++=>3)”.

With `C[C@H]1CC[C@@H](Nc2ncc(-c3ccc4c(c3)OCCO4)c(O[C@@H]3CCOC3)n2)CC1` [Example 201, 5-(2,3-dihydrobenzo[b][1,4]dioxin-6-yl)-N-((1s,4S)-4-methylcyclohexyl)-4-((R)-tetrahydrofuran-3-yloxy)pyrimidin-2-amine], on ΔF508 CFTR [1], the EC50 is ~10 µM and the “Corrector Efficacy” value is “+++ (+++=>3)”.

In the case of `COc1nc(N[C@H]2CC[C@@H](C)CC2)ncc1-c1ccc(OC(F)(F)F)cc1` [Example 103, 4-methoxy-N-((1s,4s)-4-methylcyclohexyl)-5-(4-(trifluoromethoxy)phenyl)pyrimidin-2-amine], at ΔF508 CFTR [2] (setting [3]), the EC50 is < 3 µM and the “Potentiator Efficacy” value is listed as “++ (++=0.3-0.6)”.

Take `COc1nc(N[C@H]2CC[C@@H](C)CC2)ncc1-c1ccc(OCC#N)cc1` [Example 125, 2-(4-(4-methoxy-2-((1s,4s)-4-methylcyclohexylamino)pyrimidin-5-yl)phenoxy)acetonitrile]: at ΔF508 CFTR [1], the EC50 was > 20 µM and the “Corrector Efficacy” value is given as “+++ (+++=>3)”.

Take `C[C@H]1CC[C@@H](Nc2ncc(-c3ccc(OC(F)(F)F)cc3)cn2)CC1` [Example 4, N-((1S,4S)-4-Methylcyclohexyl)-5-(4-(trifluoromethoxy)phenyl)pyrimidin-2-amine]: on ΔF508 CFTR [1], the EC50 was < 10 µM and the “Corrector Efficacy” value is “+++ (+++=>3)”. Further, at ΔF508 CFTR [2] (* vehicle treated cells), the EC50 is < 3 µM and the “Potentiator Efficacy” value is listed as “+++* (+++=>0.6)”. On ΔF508 CFTR [2] (setting [4]), the EC50 is < 3 µM and the “Potentiator Efficacy” value was “+++** (+++=>0.6)”.

As to `COc1nc(N[C@H]2CC[C@@H](C)CC2)ncc1-c1ccnc(C#N)c1` [Example 143, 4-(4-methoxy-2-((1s,4s)-4-methylcyclohexylamino)pyrimidin-5-yl)picolinonitrile], at ΔF508 CFTR [2] (setting [3]), the EC50 was < 3 µM and the “Potentiator Efficacy” value is recorded as “++ (++=0.3-0.6)”.

In the case of `COc1ccc(-c2cnc(N[C@H]3CC[C@@H](C)CC3)nc2)cc1` [Example 27, 5-(4-methoxyphenyl)-N-((1s,4s)-4-methylcyclohexyl)pyrimidin-2-amine], on ΔF508 CFTR [1], the EC50 was < 10 µM and the “Corrector Efficacy” value is reported as “+++ (+++=>3)”. Moreover, at ΔF508 CFTR [2] (setting [4]), the EC50 was < 3 µM and the “Potentiator Efficacy” value is given as “++** (++=0.3-0.6)”.

As to `COc1nc(N[C@H]2CC[C@@H](C)CC2)ncc1-c1ccc(OC(F)F)cc1` [Example 59, 5-(4-(difluoromethoxy)phenyl)-4-methoxy-N-((1s,4s)-4-methylcyclohexyl)pyrimidin-2-amine], on ΔF508 CFTR [1], the EC50 was < 10 µM and the “Corrector Efficacy” value is given as “+++ (+++=>3)”. At ΔF508 CFTR [2] (setting [4]), the EC50 was < 3 µM and the “Potentiator Efficacy” value is reported as “++** (++=0.3-0.6)”.

Take `C[C@H]1CC[C@@H](Nc2ncc(-c3ccc(OCC#N)cc3)c(OC3CCOC3)n2)CC1` (some centres unmarked) [Example 150, 2-(4-(2-((1s,4s)-4-methylcyclohexylamino)-4-(tetrahydrofuran-3-yloxy)pyrimidin-5-yl)phenoxy)acetonitrile]: on ΔF508 CFTR [1], the EC50 was > 10 µM and the “Corrector Efficacy” value was “+++ (+++=>3)”.

For `COc1nc(N[C@H]2CC[C@@H](C)CC2)ncc1-c1ccc(OC(C)C)cc1` [Example 102, 5-(4-isopropoxyphenyl)-4-methoxy-N-((1s,4s)-4-methylcyclohexyl)pyrimidin-2-amine], at ΔF508 CFTR [2] (setting [3]), the EC50 was < 3 µM and the “Potentiator Efficacy” value was “++ (++=0.3-0.6)”.

With `COc1nc(N[C@H]2CC[C@@H](C)CC2)ncc1-c1ccc(OC(C)C)nc1` [Example 118, 5-(6-isopropoxypyridin-3-yl)-4-methoxy-N-((1s,4s)-4-methylcyclohexyl)pyrimidin-2-amine], at ΔF508 CFTR [1], the EC50 is < 10 µM and the “Corrector Efficacy” value was “+++ (+++=>3)”.

As for `COc1nc(N[C@H]2CC[C@@H](C)CC2)ncc1-c1ccc(N2CCCCC2)nc1` [Example 119, 4-methoxy-N-((1s,4s)-4-methylcyclohexyl)-5-(6-(piperidin-1-yl)pyridin-3-yl)pyrimidin-2-amine], at ΔF508 CFTR [1], the EC50 was < 10 µM and the “Corrector Efficacy” value is listed as “+++ (+++=>3)”.

With `COc1nc(N[C@H]2CC[C@@H](C)CC2)ncc1-c1ccc(OC(C)C)cc1` [Example 7, 5-(4-Isopropoxyphenyl)-4-methoxy-N-((1S,4S)-4-methylcyclohexyl)pyrimidin-2-amine], on ΔF508 CFTR [1], the EC50 is < 10 µM and the “Corrector Efficacy” value is given as “+++ (+++=>3)”. At ΔF508 CFTR [2] (setting [4]), the EC50 is < 10 µM and the “Potentiator Efficacy” value is on record as “++** (++=0.3-0.6)”.

Take `COc1nc(N[C@H]2CC[C@@H](C)CC2)ncc1-c1ccc(OC(F)F)cc1` [Example 104, 5-(4-(difluoromethoxy)phenyl)-4-methoxy-N-((1s,4s)-4-methylcyclohexyl)pyrimidin-2-amine]: on ΔF508 CFTR [2] (setting [3]), the EC50 was < 3 µM and the “Potentiator Efficacy” value was “++ (++=0.3-0.6)”.

`COc1nc(N[C@H]2CC[C@@H](C)CC2)ncc1-c1ccc(OC(F)(F)F)cc1` [Example 58, 4-methoxy-N-((1s,4s)-4-methylcyclohexyl)-5-(4-(trifluoromethoxy)phenyl)pyrimidin-2-amine]: at ΔF508 CFTR [1], the EC50 is < 10 µM and the “Corrector Efficacy” value is reported as “+++ (+++=>3)”. Moreover, at ΔF508 CFTR [2] (setting [4]), the EC50 was < 3 µM and the “Potentiator Efficacy” value is on record as “+++** (+++=>0.6)”.

Take `C[C@H]1CC[C@@H](Nc2ncc(-c3ccc(OC(F)F)cc3)cn2)CC1` [Example 19, 5-(4-(difluoromethoxy)phenyl)-N-((1s,4s)-4-methylcyclohexyl)pyrimidin-2-amine]: at ΔF508 CFTR [1], the EC50 was < 10 µM and the “Corrector Efficacy” value is listed as “+++ (+++=>3)”. In addition, on ΔF508 CFTR [2] (setting [4]), the EC50 is < 3 µM and the “Potentiator Efficacy” value is “+++** (+++=>0.6)”.

As to `CC(C)Oc1ccc(-c2cnc(N[C@H]3CC[C@@H](C)CC3)nc2)cc1` [Example 23, 5-(4-isopropoxyphenyl)-N-((1s,4s)-4-methylcyclohexyl)pyrimidin-2-amine], at ΔF508 CFTR [1], the EC50 was < 10 µM and the “Corrector Efficacy” value is recorded as “+++ (+++=>3)”. For the same compound, on ΔF508 CFTR [2] (setting [4]), the EC50 was < 3 µM and the “Potentiator Efficacy” value was “+++** (+++=>0.6)”.
